{"source": "paper PMC9335333", "about": "(Proceedings of the National Academy of Sciences of the …, 2022)", "molecular_target": "T1, vesicular nucleotide transporter (VNUT) (Homo sapiens, UniProt Q9BYT1)", "T1 sequence (Q9BYT1 1-436)": "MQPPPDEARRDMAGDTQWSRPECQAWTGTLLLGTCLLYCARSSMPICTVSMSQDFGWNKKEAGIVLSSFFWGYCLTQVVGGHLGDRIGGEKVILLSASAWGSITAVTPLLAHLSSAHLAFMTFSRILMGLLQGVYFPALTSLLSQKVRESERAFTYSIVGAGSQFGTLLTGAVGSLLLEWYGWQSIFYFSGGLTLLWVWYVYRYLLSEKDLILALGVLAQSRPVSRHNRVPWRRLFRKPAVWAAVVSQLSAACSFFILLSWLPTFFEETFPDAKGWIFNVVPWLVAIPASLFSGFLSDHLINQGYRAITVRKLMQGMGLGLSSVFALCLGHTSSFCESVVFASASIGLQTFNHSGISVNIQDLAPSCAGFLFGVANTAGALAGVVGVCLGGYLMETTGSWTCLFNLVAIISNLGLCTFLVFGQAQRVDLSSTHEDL", "experiment": "[3H]-ATP uptake in proteoliposomes with purified human VNUT", "assay_type": "biochemical", "data": [{"smiles": "CC/C=C\\C/C=C\\C/C=C\\C/C=C\\C/C=C\\CCCC(=O)O", "note": "[EPA, eicosapentaenoic acid]", "values": [{"measurement": "IC50", "value": 67, "unit": "nM"}]}]}
